Experimental findings from PubChem BioAssay (NCI) are described below.

The structures appear in SMILES notation. Values joined by “and” are separate entries in the source; they are usually repeats but may differ in a detail not shown here. Equal values may be shown once.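 Cells were grown in 96-well plates and exposed to each compound for 48 hours at five concentrations; endpoints were interpolated linearly between bracketing concentrations, or set to the highest concentration if not reached. The concentration for 50% growth inhibition is given as GI50. TGI denotes the concentration required for complete inhibition of growth.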 Active and inactive are the calls of the source. Cut-off read from the data, not from the text of the source: active = GI50 below about 0.43 µM; inactive = the rest.

In the assay the test system is MDA-MB-468 breast. The assay can be described thus: NCI anticancer screen, dose series, 48 h.

In the case of `CSc1ccc2c(c1)N(CCC1CCCCN1C)c1ccccc1S2` (stereo not drawn), the GI50 is 1780 nM and the TGI came out at 3920 nM. `COC(C(=O)C(O)C(C)O)C1Cc2cc3cc(OC4CC(OC5CC(O)C(O)C(C)O5)C(O)C(C)O4)c(C)c(O)c3c(O)c2C(=O)C1OC1CC(OC2CC(O)C(OC3CC(C)(O)C(O)C(C)O3)C(C)O2)C(O)C(C)O1` (stereo not drawn): the outcome was inactive. As for `CNc1cc2nc3cc(NC)c(C)cc3cc2cc1C`, the GI50 is 242 nM and the TGI came out at 1940 nM. In the same order, the values of `COc1ccc(-c2nn(-c3cccc(NC(=O)Nc4ccccc4)c3)cc2-c2ccncc2)cc1Cl` are 2260 nM and 6430 nM. In the same order, the values of `c1ccc(Nc2nc(-c3ccccn3)cs2)nc1` are 1130 nM and 11500 nM. On to `CC(C)(CCN=C(N)Nc1ccccn1)c1ccc(C(F)(F)F)cc1`, for which the GI50 was 7070 nM and the TGI amounted to 22300 nM.

As for `CCCC[n+]1c(/C=C\c2c(OC)cc(OC)cc2OC)ccc2ccccc21`, the GI50 is 241 nM and the TGI came to 1380 nM. On to `CCCCCCCCCCC/C=C\C[C@H](O)C/C=C1/C(=O)C=C[C@@H]1C/C=C\CCCC(=O)OC`, for which the GI50 is 864 nM and the TGI came out at 3760 nM.

As to `Cc1[nH]c(C(=O)Nc2ccccc2OC2CCNCC2)c(Cl)c1Cl`, the GI50 was 930 nM and the TGI was determined as 1900 nM. In the same order, the values of `COC(=O)c1ccc(NC2=C/C(=N/S(=O)(=O)c3ccc(C(=O)O)cc3)c3ccccc3C2=O)cc1` are 1710 nM and 4040 nM.

Turning to `Nc1ccc(-c2nnc(SCc3ccc(O)c4ncccc34)o2)cc1`, the GI50 was 38.7 nM and the TGI was determined as 1160 nM. Consider `CN(C)CCC=C1c2ccccc2C(C)(C)c2ccccc21`, for which the GI50 was 2590 nM and the TGI is 14000 nM. As to `Clc1nc(Cl)c2c3c(sc2n1)CCCC3`, the GI50 was 2100 nM. Consider `O=C1C(Nc2ccc(Br)cc2)=C(I)C(=O)c2ncccc21`, for which the GI50 is 970 nM and the TGI came to 1930 nM. As to `O=C(CCCCCCN1CC(=O)N2[C@@H](c3cccc(Br)c3)c3[nH]c4ccccc4c3C[C@H]2C1=O)NO`, the GI50 is 2090 nM and the TGI turned out to be 5470 nM.

For `O=C(N=Nc1c(O)[nH]c2ccccc12)c1oc2ccccc2c1CN1CCN(c2ccccc2)CC1`, the GI50 is 1240 nM and the TGI amounted to 3890 nM. On to `Nc1ccccc1NC(=O)c1ccc(CN2CCC/C(=C\c3ccccn3)C2=O)cc1`, for which the GI50 is 1330 nM and the TGI amounted to 3880 nM.

For the compound `Cc1cc2nc3ccc(=[N+](C)C)cc-3sc2cc1N`, the GI50 was 455 nM and 618 nM; the TGI is 2180 nM and 3820 nM.

For `CCC(C)[C@H](NC(=O)NC(=O)NC(=O)CI)C(=O)OC` (stereo partly drawn), the GI50 was 3540 nM and the TGI worked out at 12600 nM. With `O=c1c2c(c3ccccc3n1-c1ccccc1)NC(=S)NC2c1ccc(Cl)cc1` (stereo not drawn), the GI50 is 19000 nM and the TGI was above 100000 nM.

For the compound `COc1cc(/C=C2\Oc3cc(OCCCN4CCCC4)ccc3C2=O)cc(OC)c1`, the GI50 was 2930 nM and the TGI worked out at 13000 nM. Consider `NC1CCC(Nc2nc(NCc3cc(Cl)ccc3O)c3ncn(C4CCCC4)c3n2)CC1` (stereo not drawn), for which the GI50 is 158 nM and the TGI came out at 468 nM. Regarding `CCOC(=O)c1ccc2c(c1)nc(/C=C/c1ccc(Cl)cc1)n2-c1cc(C(C)(C)C)[nH]n1`, the GI50 is 4680 nM and the TGI came out at 95600 nM. In turn, `CCN(Cc1ccccc1Cl)c1ccc(CO)c(Cl)c1` gave a TGI of 116 nM.

Consider `C=C1CC[C@@H]2[C@](C)(COC(C)=O)[C@H](OC(C)=O)CC[C@@]2(C)[C@@H]1CC(Nc1ccc(S(=O)(=O)Nc2cc(C)on2)cc1)C1=CCOC1=O` (stereo partly drawn), for which the GI50 was 1490 nM and the TGI came to 3290 nM. Regarding `Cc1cccc2nc3cccc(C(=O)NCCNCCNCCNC(=O)c4cccc5nc6cccc(C)c6nc45)c3nc12`, the GI50 was 17.2 nM and the TGI came to 1020 nM.

In the case of `CCCCCCC/C=C/[C@H]1O[C@]2(O)C(=O)C=C3C[C@@H](O[C@@H]4O[C@H](CO)[C@@H](O)C(O)[C@@H]4O)C[C@@H]3[C@H]2C=C1C` (stereo partly drawn), the GI50 is 3420 nM and the TGI was determined as 11400 nM. As to `CCCCCc1cc[n+](CC(=O)c2ccc([N+](=O)[O-])cc2)cc1`, the GI50 was 2170 nM and the TGI turned out to be 8060 nM. Regarding `COc1cc2nc(-c3ccc(Cl)cc3)cc(OCCCN3CCCC3)c2cc1OC`, the GI50 is 1280 nM and the TGI amounted to 3110 nM. For `COc1cccc(-n2cc(-c3nc(Nc4cc(C)[nH]n4)c4ccccc4n3)nn2)c1`, the GI50 was 4320 nM and the TGI came out at 15700 nM. For the compound `Fc1ccc(-c2nn3c(-c4cc(C(F)(F)F)cc(C(F)(F)F)c4)nnc3s2)cc1`, the GI50 is 2530 nM and the TGI was above 50000 nM. Consider `Clc1cc2c(nn1)Nc1ccccc1S2`, for which the GI50 was above 100000 nM and the TGI was above 100000 nM.

Turning to `Cc1ccc(/C=C/C(=N/N=C(N)N)c2ccccc2)cc1`, the GI50 was 509 nM and the TGI came out at 4130 nM. In the same order, the values of `CN1CC[C@]2(c3cccc(O)c3)CC(=O)/C(=C/c3ccccc3)[C@H]1C2` are 2190 nM and 6200 nM. In the case of `O=[N+]([O-])c1ccc(Sc2nc(Cl)nc(NC3CCCC3)n2)cc1`, the GI50 is 2100 nM and the TGI amounted to 7130 nM. On to `CC[C@@H](C(=O)[C@H](C)[C@H](O)[C@@H](C)[C@H]1O[C@H]([C@@H](CC)C(=O)O)CC[C@H]1C)C1O[C@]2(C=C[C@@H](O)[C@]3(CC[C@@](C)([C@H]4CC[C@](O)(CC)[C@H](C)O4)O3)O2)[C@H](C)C[C@@H]1C` (stereo partly drawn), for which the GI50 was 194 nM and the TGI was found to be 1850 nM. For the compound `O=C(O)C1C2C=CC(C2)C1C(=O)O` (stereo not drawn), the GI50 is above 100000 nM and the TGI is above 100000 nM. As to `O=c1c2cccc(F)c2sc2c(N3CCNCC3)nc3ccccc3c12`, the GI50 was 1460 nM and the TGI stood at 3100 nM. Regarding `COc1ccc(-c2nc(Nc3ccc(-c4nc5ccccc5[nH]4)cc3)nc(N3CCOCC3)n2)cc1`, the GI50 was 2920 nM and the TGI was 7650 nM.

Consider `CC1=C(C(=O)Nc2ccc3[nH]ncc3c2)C(c2ccc(Cl)c(Cl)c2)CC(=O)N1` (stereo not drawn), for which the GI50 was above 18000 nM and the TGI was above 25000 nM. The matching figures for `CO[C@]12C=C/C(=C(/C(=O)OCc3cccnc3)C(=O)CCCCCCCC[C@@]3(OC)C=C/C(=C(/C(=O)OCc4cccnc4)C(=O)CCCCCCCC1)O3)O2`: 919 nM and 2300 nM. The matching figures for `Nc1nc2c(nnn2C2OC(CO)C(O)C2O)c(=O)[nH]1` (stereo not drawn): 488 nM and 5370 nM. Consider `C=C1CCC2C3(C)COC(c4c(OC)cccc4OC)OC3CCC2(C)C1C/C=C1/C(=O)OCC1O` (stereo not drawn), for which the GI50 was 1470 nM and the TGI was determined as 3350 nM.
